For 50 molecules, IC50 results are on record in patent publication US7799954B2, “Dicarbonyl derivatives and methods of use” (Abraxis BioScience, LLC, priority 2006, dated 2010).

As a reminder, the IC50 is the midpoint of a concentration-inhibition curve.

One experiment has as its system MX-1 (human breast carcinoma) cells. Description: in vitro growth inhibition, Promega CellTiter Blue Cell Viability Assay. The experiment is classed as cell-based. The following applies: MX1, 72 h. On the procedure: The cytotoxicity assay was quantitated using the Promega CellTiter Blue Cell Viability Assay. Briefly, cells (5000 cells/well) were plated onto 96-well microtiter plates in RPMI 1640 medium supplemented with 10% FBS and incubated at […] in a humidified 5% CO2 atmosphere. After 24 h, cells were exposed to various concentrations of compound in DMSO and cultured for another 72 h. 100 ul of media were removed and 20 ul of Promega CellTiter Blue reagent were added to each well and shaken to mix. After 4 hours of incubation at 37° C. in a humidified 5% CO2 atmosphere, the plates were read at 544 ex/620 em. The fluorescence produced is proportional to the number of viable cells. After plotting fluorescence produced against drug concentration, the IC50 was calculated as the […] of the resulting non-linear regression.
In general terms: Resazurin is reduced to fluorescent resorufin, in cell work by metabolically active cells.
For the molecule `CN(C)C1=CC(=O)C(C2C(=O)C=C(N(C)C)CC2(C)C)C(C)(C)C1` (centres unmarked) [Compound 1], the IC50 is above 1000 µM.
On the same count and under the same terms, under `CC1(C)C=CC(=O)C(C2CC(C)(C)C=CC2=O)C1` (centres unmarked) [Compound 2] stands 56.8 µM; under `O=C1CCC(c2ccccc2)CC1C1CC(c2ccccc2)CCC1=O` (centres unmarked) [Compound 3], 29.7 µM.
Still for that read-out and setting: under `CCOC1=CC(=O)C(C2CCC(OCC)=CC2=O)CC1` (centres unmarked) [Compound 4] stands above 1000 µM.
The same measure, in the same setting: the value for `COc1ccc2c(c1)CCC(C1CCc3cc(OC)ccc3C1=O)C2=O` (centres unmarked) [Compound 5] was above 1000 µM.
The molecule `O=C1c2ccccc2CCC1C1CCc2ccccc2C1=O` (centres unmarked) [Compound 6] registered an IC50 above 1000 µM.
Take `C/C=C/C(=O)C(C)C(C)C(=O)/C=C/C` (centres unmarked) [Compound 7]: half-maximal inhibition (IC50) was put at 2.63 µM.
On the same count and under the same terms, under `O=C1OC(c2ccccc2)CC1C1CC(c2ccccc2)OC1=O` (centres unmarked) [Compound 9] stands 472 µM; under `O=C(CCC(=O)C1=CCCCC1)C1=CCCCC1` [Compound 10], above 1000 µM.
For `CC(C)=CC(=O)CCC(=O)C=C(C)C` [Compound 11], the IC50 was 10.3 µM.
Still for that read-out and setting: under `CC(C(=O)c1ccccc1)C(C)C(=O)c1ccccc1` (centres unmarked) [Compound 12] stands above 1000 µM; under `O=C(/C=C/c1ccccc1)CCC(=O)/C=C/c1ccccc1` [Compound 13], 37.9 µM.
The same measure, in the same setting: the value for `O=C(/C=C/c1cccc(Cl)c1)CCC(=O)/C=C/c1cccc(Cl)c1` [Compound 14] was 55.7 µM; that for `CCCC/C=C/C(=O)CCC(=O)/C=C/CCCC` [Compound 15] was 7.99 µM; that for `C/C=C/C(=O)C(C)C1CCC=CC1=O` (centres unmarked) [Compound 20] was 0.52 µM.
The same measure, in the same setting: under `O=C(/C=C/c1ccccc1)CC1CCC=CC1=O` (centres unmarked) [Compound 21] stands 0.42 µM; under `COc1ccc(/C=C/C(=O)CC2CCC=CC2=O)cc1OC` (centres unmarked) [Compound 23], 0.17 µM.
`O=C(/C=C/c1ccc2c(c1)OCO2)CC1CCC=CC1=O` (centres unmarked) [Compound 24] registered an IC50 of 0.7 µM.
The same measure, in the same setting: under `O=C(O)/C=C/C(=O)/C=C/c1ccccc1` [Compound 28] stands 3.96 µM; under `COc1ccc(/C=C/C(=O)/C=C/C(=O)O)cc1OC` [Compound 29], 29 µM; under `COc1cc(/C=C/C(=O)/C=C/C(=O)O)cc(OC)c1OC` [Compound 30], 34.2 µM.
Same read-out and setting: under `COc1ccc(/C=C/C(=O)/C=C/C(=O)N2CCN(c3ccncc3)CC2)cc1OC` [Compound 37] stands 0.12 µM; under `COc1ccc(/C=C/C(=O)/C=C/C(=O)N2CCN(c3ccccc3)CC2)cc1OC` [Compound 38], 0.25 µM.

The same experiment, now with this note: MX1, MX-1 cells, 72 h exposure, CellTiter Blue fluorescence 544 ex/620 em, read-out: IC50.
For `CC(C)=C/C=C/C(=O)CCC(=O)/C=C/C=C(C)C` [Compound 16], the IC50 amounted to 16.2 µM.
On the same count and under the same terms, under `COc1ccc(/C=C/C(=O)CCC(=O)/C=C/c2ccc(OC)c(OC)c2)cc1OC` [Compound 17] stands 73.1 µM; under `O=C1c2cc(F)ccc2OCC1C1COc2ccc(F)cc2C1=O` (centres unmarked) [Compound 18], above 1000 µM; under `CC(C)=CC(=O)CC1CCC=CC1=O` (centres unmarked) [Compound 19], 1.04 µM.
On the same count and under the same terms, the value for `C/C=C/C(=O)C(C)CC(=O)/C=C/c1ccccc1` (centres unmarked) [Compound 22] was 2.07 µM.
On the same count and under the same terms, the value for `O=C(/C=C/c1ccc(O)cc1)CC1CCC=CC1=O` (centres unmarked) [Compound 25] was 0.16 µM; that for `O=C(/C=C/c1cccc(C(F)(F)F)c1)CC1CCC=CC1=O` (centres unmarked) [Compound 26] was 2.59 µM; that for `CCOC(=O)CCC(=O)/C=C/c1ccccc1` [Compound 27] was 77.5 µM.
Turning to `CCOC(=O)/C=C/C(=O)/C=C/c1ccccc1` [Compound 31], the IC50 is 2.17 µM.
On the same count and under the same terms, under `CCCN(C)C(=O)/C=C/C(=O)/C=C/c1ccccc1` [Compound 32] stands 0.39 µM.
Still for that read-out and setting: under `O=C(/C=C/C(=O)Nc1ccccc1)/C=C/c1ccccc1` [Compound 33] stands 3.25 µM.
Consider `CCCN(C)C(=O)/C=C/C(=O)/C=C/c1ccc(OC)c(OC)c1` [Compound 34], for which the IC50 turned out to be 0.28 µM.
On the same count and under the same terms, the value for `COc1ccc(/C=C/C(=O)/C=C/C(=O)Nc2ccccc2)cc1OC` [Compound 35] was 0.89 µM.
Same read-out and setting: the value for `COc1ccc(/C=C/C(=O)/C=C/C(=O)N2CCN(C)CC2)cc1OC` [Compound 36] was 0.17 µM; that for `COc1cc(/C=C/C(=O)/C=C/C(=O)N2CCN(C)CC2)cc(OC)c1OC` [Compound 39] was 0.8 µM; that for `COc1cc(/C=C/C(=O)/C=C/C(=O)N2CCN(c3ccncc3)CC2)cc(OC)c1OC` [Compound 40] was 0.48 µM.
The same measure, in the same setting: the value for `COC(=O)/C=C/C(=O)Nc1ccc(F)cc1` [Compound 41] was 121 µM; that for `CO/N=C(\C=C\c1ccc(OC)c(OC)c1)CC1CCC=C/C1=N\OC` (centres unmarked) [Compound 42] was 128 µM.
For the molecule `CCCN(C)C(=O)/C=C/C(/C=C/c1ccccc1)=N\OC` [Compound 43], the IC50 was determined as 171 µM.
Same read-out and setting: under `COc1ccc(/C=C/C(/C=C/C(=O)N2CCN(C)CC2)=NO)cc1OC` [Compound 45] stands 371 µM.
Still for that read-out and setting: under `CON=C(/C=C/C(=O)N1CCN(C)CC1)/C=C/c1ccc(OC)c(OC)c1` [Compound 46] stands 482 µM; under `COc1ccc(/C=C/C(/C=C/C(=O)N2CCN(C)CC2)=NOc2ccccc2)cc1OC` [Compound 47], 8.73 µM; under `COc1ccc(/C=C/C(/C=C/C(=O)N2CCN(C)CC2)=NOCc2ccccc2)cc1OC` [Compound 48], 23.4 µM.
For the molecule `CON=C(/C=C/C(=O)N1CCN(C)CC1)/C=C/c1cc(OC)c(OC)c(OC)c1` [Compound 49], the IC50 is above 1000 µM.
Turning to `O=C(O)c1cc(/C=C/c2ccccc2)no1` [Compound 50], the concentration for half-maximal inhibition (IC50) is above 1000 µM.
`CCOC(=O)c1cc(/C=C/c2ccccc2)no1` [Compound 51]: the IC50 worked out at 533 µM.
On the same count and under the same terms, under `CCCN(C)C(=O)c1cc(/C=C/c2ccccc2)no1` [Compound 52] stands 195 µM.
